This note sets out measurements from patent US20240238423A9, “TETRAHYDROISOQUINOLINE HETEROBIFUNCTIONAL BCL-XL DEGRADERS” (Treeline Biosciences, Inc., priority 2022, published 2024).

The structures appear in SMILES notation. Where two headings read alike, the source gives them in different places.

The target of this test is T1, Human BCL-XL protein (N-terminal HiBiT tagged BCL-XL in HT1080 cells) (Homo sapiens, UniProt Q07817).
T1 construct: expressed in transfected cells; host or cells: HT-1080 (ATCC CCL-121), stably transduced with lentivirus pLV-UBC-N-HiBiT-BCL-XL-PGK-puro and selected with puromycin
Put plainly: HiBiT based degradation assay. It counts as cell-based. The following applies: HT1080 cells expressing HiBiT-BCL-XL; for Ymin (24 h) / Ymin (6 h): BCL-XL degradation normalized with DMSO control; for DC50: BCL-XL degradation. The method in brief:
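This HiBiT degradation assay measured loss of BCL-XL in HT1080 cells that stably express an N-terminal HiBiT-BCL-XL fusion delivered by lentivirus. Cells were added to compound-spotted 384-well plates, and luminescence was read on a PHERAstar FSX reader. Signal was expressed relative to DMSO controls, curves were fitted by four-parameter logistic regression, and for hook-shaped curves the Ymin point served as the bottom plateau when calculating EC50.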
(With HiBiT, luminescence reflects the tagged protein that the partner subunit can reach.)

T1 sequence (Q07817 whole entry): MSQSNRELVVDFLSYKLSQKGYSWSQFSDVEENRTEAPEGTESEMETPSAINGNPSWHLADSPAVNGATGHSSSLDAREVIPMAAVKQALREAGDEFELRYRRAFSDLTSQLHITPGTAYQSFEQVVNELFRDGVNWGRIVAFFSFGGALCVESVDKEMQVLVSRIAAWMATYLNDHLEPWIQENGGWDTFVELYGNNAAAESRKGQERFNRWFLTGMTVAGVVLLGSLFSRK

With `Cc1c(OCCC2CCN(CCC3CCN(c4ccc5c(C6CCC(=O)NC6=O)nn(C)c5c4)CC3)CC2)cccc1-c1ccc(N2CCc3cccc(C(=O)Nc4nc5ccccc5s4)c3C2)nc1C(=O)O` (stereo not shown) [Compound 223, 6-(8-(benzo[d]thiazol-2-ylcarbamoyl)-3,4-dihydroisoquinolin-2(1H)-yl)-3-(3-(2-(1-(2-(1-(3-(2,6-dioxopiperidin-3-yl)-1-methyl-1H-indazol-6-yl)piperidin-4-yl)ethyl)piperidin-4-yl)ethoxy)-2-methylphenyl)picolinic acid], the “Ymin (24 h)” value (24 h) is reported as “A (Ymin < 50%)”. The DC50 (24 h, read-out: EC50 (24 h)) was < 100 nM.
As to `Cc1c(OCCO[C@@H]2C[C@H]3CC[C@@H](C2)N3CC(=O)Nc2cccc3c(C4CCC(=O)NC4=O)nn(C)c23)cccc1-c1ccc(N2CCc3cccc(C(=O)Nc4nc5ccccc5s4)c3C2)nc1C(=O)O` (stereo partly drawn) [Compound 224a, 6-(8-(benzo[d]thiazol-2-ylcarbamoyl)-3,4-dihydroisoquinolin-2(1H)-yl)-3-(3-(2-(((1R,3s,5S)-8-(2-((3-(2,6-dioxopiperidin-3-yl)-1-methyl-1H-indazol-7-yl)amino)-2-oxoethyl)-8-azabicyclo[3.2.1]octan-3-yl)oxy)ethoxy)-2-methylphenyl)picolinic acid], the “Ymin (6 h)” value (6 h) is listed as “C (Ymin ≥ 70%)”. Besides, under “24 h”, the “Ymin (24 h)” value is “B (50% ≤ Ymin < 70%)”. In addition, the DC50 runs as follows: (6 h, read-out: EC50 (6 h)) 1000 to 10000 nM; (24 h, read-out: EC50 (24 h)) < 100 nM.
With `Cc1c(OCCO[C@H]2C[C@H]3CC[C@@H](C2)N3CC(=O)Nc2cccc3c(C4CCC(=O)NC4=O)nn(C)c23)cccc1-c1ccc(N2CCc3cccc(C(=O)Nc4nc5ccccc5s4)c3C2)nc1C(=O)O` (stereo partly drawn) [Compound 224b, 6-(8-(benzo[d]thiazol-2-ylcarbamoyl)-3,4-dihydroisoquinolin-2(1H)-yl)-3-(3-(2-(((1R,3r,5S)-8-(2-((3-(2,6-dioxopiperidin-3-yl)-1-methyl-1H-indazol-7-yl)amino)-2-oxoethyl)-8-azabicyclo[3.2.1]octan-3-yl)oxy)ethoxy)-2-methylphenyl)picolinic acid], for the setting “24 h”, the “Ymin (24 h)” value was “B (50% ≤ Ymin < 70%)”. For the same compound, the DC50 (24 h, read-out: EC50 (24 h)) is < 100 nM.
In the case of `Cc1c(OCC2CC3(CCN(CCN4CCN(c5ccc6c(C7CCC(=O)NC7=O)nn(C)c6c5)CC4)CC3)C2)cccc1-c1ccc(N2CCc3cccc(C(=O)Nc4nc5ccccc5s4)c3C2)nc1C(=O)O` (stereo not shown) [Compound 225, 6-(8-(benzo[d]thiazol-2-ylcarbamoyl)-3,4-dihydroisoquinolin-2(1H)-yl)-3-(3-((7-(2-(4-(3-(2,6-dioxopiperidin-3-yl)-1-methyl-1H-indazol-6-yl)piperazin-1-yl)ethyl)-7-azaspiro[3.5]nonan-2-yl)methoxy)-2-methylphenyl)picolinic acid], under “24 h”, the “Ymin (24 h)” value was “A (Ymin < 50%)”. Moreover, the DC50 (24 h, read-out: EC50 (24 h)) is < 100 nM.
In the case of `Cc1c(OCC2CC3(CCN(CC(=O)Nc4cccc5c(C6CCC(=O)NC6=O)nn(C)c45)CC3)C2)cccc1-c1ccc(N2CCc3cccc(C(=O)Nc4nc5ccccc5s4)c3C2)nc1C(=O)O` (stereo not shown) [Compound 226, 6-[8-(1,3-benzothiazol-2-ylcarbamoyl)-3,4-dihydro-1H-isoquinolin-2-yl]-3-[3-[[7-[2-[[3-(2,6-dioxo-3-piperidyl)-1-methyl-indazol-7-yl]amino]-2-oxo-ethyl]-7-azaspiro[3.5]nonan-2-yl]methoxy]-2-methyl-phenyl]pyridine-2-carboxylic acid], for the setting “6 h”, the “Ymin (6 h)” value is on record as “C (Ymin ≥ 70%)”. Moreover, the “Ymin (24 h)” value (24 h) is recorded as “B (50% ≤ Ymin < 70%)”. In addition, the DC50 was < 100 nM (6 h, read-out: EC50 (6 h)) and 100 to 1000 nM (24 h, read-out: EC50 (24 h)).
`Cc1c(O[C@H]2CC[C@H](CCCC(=O)N3CCN(c4ccc5c(C6CCC(=O)NC6=O)nn(C)c5c4)CC3)CC2)cccc1-c1ccc(N2CCc3cccc(C(=O)Nc4nc5ccccc5s4)c3C2)nc1C(=O)O` (stereo partly shown) [Compound 227a, 6-(8-(benzo[d]thiazol-2-ylcarbamoyl)-3,4-dihydroisoquinolin-2(1H)-yl)-3-(3-(((1s,4r)-4-(4-(4-(3-(2,6-dioxopiperidin-3-yl)-1-methyl-1H-indazol-6-yl)piperazin-1-yl)-4-oxobutyl)cyclohexyl)oxy)-2-methylphenyl)picolinic acid]: for the setting “24 h”, the “Ymin (24 h)” value is “A (Ymin < 50%)”. Moreover, the DC50 (24 h, read-out: EC50 (24 h)) was < 100 nM.
As for `Cc1c(OCCN2CCN(CC3CCN(c4cccc5c(C6CCC(=O)NC6=O)nn(C)c45)CC3)CC2)cccc1-c1ccc(N2CCc3cccc(C(=O)Nc4nc5ccccc5s4)c3C2)nc1C(=O)O` (stereo not shown) [Compound 228, 6-(8-(benzo[d]thiazol-2-ylcarbamoyl)-3,4-dihydroisoquinolin-2(1H)-yl)-3-(3-(2-(4-((1-(3-(2,6-dioxopiperidin-3-yl)-1-methyl-1H-indazol-7-yl)piperidin-4-yl)methyl)piperazin-1-yl)ethoxy)-2-methylphenyl)picolinic acid], under “24 h”, the “Ymin (24 h)” value was “B (50% ≤ Ymin < 70%)”. Also, the DC50 (24 h, read-out: EC50 (24 h)) is < 100 nM.
The corresponding values for `Cc1c(OCCC(F)(F)C2CCN(CC(=O)Nc3ccc4c(C5CCC(=O)NC5=O)nn(C)c4c3)CC2)cccc1-c1ccc(N2CCc3cccc(C(=O)Nc4nc5ccccc5s4)c3C2)nc1C(=O)O` (stereo not shown) [Compound 229, 6-(8-(benzo[d]thiazol-2-ylcarbamoyl)-3,4-dihydroisoquinolin-2(1H)-yl)-3-(3-(3-(1-(2-((3-(2,6-dioxopiperidin-3-yl)-1-methyl-1H-indazol-6-yl)amino)-2-oxoethyl)piperidin-4-yl)-3,3-difluoropropoxy)-2-methylphenyl)picolinic acid] are “B (50% ≤ Ymin < 70%)” and < 100 nM.
With `Cc1c(OCCCC2CCN(CCN3CCN(c4cccc5c(C6CCC(=O)NC6=O)nn(C)c45)CC3)CC2)cccc1-c1ccc(N2CCc3cccc(C(=O)Nc4nc5ccccc5s4)c3C2)nc1C(=O)O` (stereo not shown) [Compound 230, 6-(8-(benzo[d]thiazol-2-ylcarbamoyl)-3,4-dihydroisoquinolin-2(1H)-yl)-3-(3-(3-(1-(2-(4-(3-(2,6-dioxopiperidin-3-yl)-1-methyl-1H-indazol-7-yl)piperazin-1-yl)ethyl)piperidin-4-yl)propoxy)-2-methylphenyl)picolinic acid], where the note is “24 h”, the “Ymin (24 h)” value is “A (Ymin < 50%)”. Moreover, for the setting “24 h, read-out: EC50 (24 h)”, the DC50 was < 100 nM.
For the compound `Cc1c(OCC[C@@H]2CCN(CC(=O)Nc3cccc4c(C5CCC(=O)NC5=O)nn(C)c34)C2)cccc1-c1ccc(N2CCc3cccc(C(=O)Nc4nc5ccccc5s4)c3C2)nc1C(=O)O` (stereo partly drawn) [Compound 231a, 6-[8-(1,3-benzothiazol-2-ylcarbamoyl)-3,4-dihydro-1H-isoquinolin-2-yl]-3-[3-[2-[(3S)-1-[2-[[3-(2,6-dioxo-3-piperidyl)-1-methyl-indazol-7-yl]amino]-2-oxo-ethyl]pyrrolidin-3-yl]ethoxy]-2-methyl-phenyl]pyridine-2-carboxylic acid], under “24 h”, the “Ymin (24 h)” value is reported as “B (50% ≤ Ymin < 70%)”. Moreover, the DC50 (24 h, read-out: EC50 (24 h)) was < 100 nM.
As to `Cc1c(OCC[C@H]2CCN(CC(=O)Nc3cccc4c(C5CCC(=O)NC5=O)nn(C)c34)C2)cccc1-c1ccc(N2CCc3cccc(C(=O)Nc4nc5ccccc5s4)c3C2)nc1C(=O)O` (stereo partly drawn) [Compound 231b, 6-[8-(1,3-benzothiazol-2-ylcarbamoyl)-3,4-dihydro-1H-isoquinolin-2-yl]-3-[3-[2-[(3R)-1-[2-[[3-(2,6-dioxo-3-piperidyl)-1-methyl-indazol-7-yl]amino]-2-oxo-ethyl]pyrrolidin-3-yl]ethoxy]-2-methyl-phenyl]pyridine-2-carboxylic acid], the “Ymin (24 h)” value (24 h) is on record as “B (50% ≤ Ymin < 70%)”. Moreover, the DC50 (24 h, read-out: EC50 (24 h)) is < 100 nM.
For the compound `Cc1c(OCCC2CCN(CCN3CCN(c4ccc5c(C6CCC(=O)NC6=O)nn(C)c5c4)CC3)CC2)cccc1-c1ccc(N2CCc3cccc(C(=O)Nc4nc5ccccc5s4)c3C2)nc1C(=O)O` (stereo not shown) [Compound 232, 6-[8-(1,3-benzothiazol-2-ylcarbamoyl)-3,4-dihydro-1H-isoquinolin-2-yl]-3-[3-[2-[1-[2-[4-[3-(2,6-dioxo-3-piperidyl)-1-methyl-indazol-6-yl]piperazin-1-yl]ethyl]-4-piperidyl]ethoxy]-2-methyl-phenyl]pyridine-2-carboxylic acid], for the setting “24 h”, the “Ymin (24 h)” value is “A (Ymin < 50%)”. The DC50 (24 h, read-out: EC50 (24 h)) was < 100 nM.
The corresponding values for `Cc1c(OCCC2CCN(CCN3CCN(c4cccc5c(C6CCC(=O)NC6=O)nn(C)c45)CC3)CC2)cccc1-c1ccc(N2CCc3cccc(C(=O)Nc4nc5ccccc5s4)c3C2)nc1C(=O)O` (stereo not shown) [Compound 233, 6-[8-(1,3-benzothiazol-2-ylcarbamoyl)-3,4-dihydro-1H-isoquinolin-2-yl]-3-[3-[2-[1-[2-[4-[3-(2,6-dioxo-3-piperidyl)-1-methyl-indazol-7-yl]piperazin-1-yl]ethyl]-4-piperidyl]ethoxy]-2-methyl-phenyl]pyridine-2-carboxylic acid] are “A (Ymin < 50%)” and < 100 nM.
`Cc1c(Oc2ccc(CC(F)(F)CN3CCN(c4ccc5c(C6CCC(=O)NC6=O)nn(C)c5c4)CC3)cc2)cccc1-c1ccc(N2CCc3cccc(C(=O)Nc4nc5ccccc5s4)c3C2)nc1C(=O)O` (stereo not shown) [Compound 234, 6-[8-(1,3-benzothiazol-2-ylcarbamoyl)-3,4-dihydro-1H-isoquinolin-2-yl]-3-[3-[4-[3-[4-[3-(2,6-dioxo-3-piperidyl)-1-methyl-indazol-6-yl]piperazin-1-yl]-2,2-difluoro-propyl]phenoxy]-2-methyl-phenyl]pyridine-2-carboxylic acid]: the “Ymin (6 h)” value (6 h) is “C (Ymin ≥ 70%)”. Also, the “Ymin (24 h)” value (24 h) is listed as “B (50% ≤ Ymin < 70%)”. In addition, the DC50 (6 h, read-out: EC50 (6 h)) was 100 to 1000 nM and the DC50 (24 h, read-out: EC50 (24 h)) is < 100 nM.
